Reference: US20100048733A1, “PENETRATION ENHANCER FOR FUNGICIDES” (Bayer CropScience AG, priority 2006, published 2010)
“Also recorded” adds a separate entry of the source. One block for each compound: values may come before it.

Columns and labels:
[1] = Penetration test: active substance penetration through enzymatically isolated apple leaf cuticles in diffusion cells, radioactively marked active substance; type: in vitro ADME, apple trees of the Golden Delicious variety
Experimental: In this test, the penetration of active substances through enzymatically isolated cuticles of apple tree leaves was measured.
Leaves which were cut off in the stage of full development of apple trees of the Golden Delicious variety were used. The isolation of the cuticles was effected in a manner such that • first, leaf disks marked on the underside with dye and punched out were filled by means of vacuum infiltration with a pectinase solution (0.2 to 2% strength by weight) buffered to a pH between 3 and 4, • sodium azide was then added and • the leaf disks thus treated were allowed to stand until disintegration of the original leaf structure and detachment of the noncellular cuticle.
Thereafter, only those cuticles of the upper sides of the leaves which were free of stomata and hairs were further used. They were washed several times alternately with water and a buffer solution at pH 7. The cleaned cuticles obtained were finally drawn onto small Teflon plates and smoothed and dried with a gentle air jet.
In the next step, the cuticle membranes thus obtained were placed in stainless steel diffusion cells (=transport chambers) for membrane transport investigations. For this purpose, the cuticles were placed by means of forceps centrally on the silicone grease-coated edges of the diffusion cells and closed with a likewise greased ring. The arrangement was chosen so that the morphological outside of the cuticles faced outward, i.e. toward the air, while the original inside faced the interior of the diffusion cell. The diffusion cells were filled with water or with a mixture of water and solvent.
For determining the penetration, in each case 10 μl of a spray liquor of the composition mentioned in the examples were applied to the outside of a cuticle.
In each case the solvents listed below in the table (tap water or a mixture with 20% by weight of acetone/80% by weight of tap water) were used in the spray liquors.
After the application of the spray liquors, in each case the solvent was allowed to evaporate, and in each case the chambers were then turned around and placed in thermostated trays, air having a defined temperature and atmospheric humidity being blown onto the outside of the cuticle. The incipient penetration therefore took place at a relative humidity of 60% and a set temperature of 20 or 25° C. The active substance penetration was measured with radioactively marked active substance.

crop plant = experiment: Crop plant tolerance tests; type: in vivo; details: compared with other alkyl ester additives; no data shown
[2] = penetration of tebuconazole 0.3 g/l, without or with 2.0 g/l penetration enhancer, acetone/tap water 20/80% by weight, apple leaf cuticles, T = 20-25° C., rel. humidity 56-60%, mean of 4-8 repetitions

Compound: CCCCOCCOP(=O)(OCCOCCCC)OCCOCCCC [TBEP, tributoxyethyl phosphate]
Effect of the penetration enhancer on uptake of the active substances (in words) ([1]; summary of tables 1 and 2, 2.0 g/l TBEP with 0.3 g/l fungicide): considerable increase in uptake of the active substances; also recorded: advantageously higher increase in uptake of active substances than the penetration enhancers of the prior art
Crop plant tolerance (crop plant): more tolerant than other alkyl ester additives

% Penetration (after hours): 3 hours ([1]; apple tree, 3 h, 0.3 g/l): 0.1 (3) %
% Penetration (after hours): 24 hours ([1]; apple tree, 24 h, 0.3 g/l): 0.6 (24) %
Compound: O=C(NCc1ncc(C(F)(F)F)cc1Cl)c1c(Cl)cccc1Cl [fluopicolid, 2,6-dichloro-N-[[3-chloro-5-(trifluoromethyl)-2-pyridinyl]methyl]benzamide]

Compound: OC(Cc1ccccc1Cl)(Cn1nc[nH]c1=S)C1(Cl)CC1 (centres unmarked) [prothioconazole]
% Penetration (after hours): 3 hours ([1]; after 3 h, 0.3 g/l active substance, without or with 2.0 g/l TBEP, acetone/tap water 20/80% by weight, apple leaf cuticles, T = 20-25° C., rel. humidity 56-60%, mean of 4-8 repetitions): 0.04 (3) %
% Penetration (after hours): 24 hours ([1]; after 24 h, 0.3 g/l active substance, without or with 2.0 g/l TBEP, acetone/tap water 20/80% by weight, apple leaf cuticles, T = 20-25° C., rel. humidity 56-60%, mean of 4-8 repetitions): 0.6 (24) %

Compound: CC(C)(C)C(O)(CCc1ccc(Cl)cc1)Cn1cncn1 (centres unmarked) [tebuconazole]
% Penetration (after 3 hours) [1, 2]: 0.9%
% Penetration (after 24 hours) [1, 2]: 1.1%
